Experimental data taken from patent US6113941A, “Substained release microcapsule of physiologically active compound which is slightly water soluble at pH 6 to 8” (Takeda Chemical Industries, Ltd., priority 1994, dated 2000).

Legend:
[1] = Oral administration to rats, plasma concentration and absorption ratio (Example 2, Table 2); type: in vivo, SD-strain male rats; details: rat, 20 mg/kg
Protocol: From this emulsion, a w/o/w type emulsion was prepared using a homogenizer in 0.5% PVA aqueous solution (1000 ml). Then, the emulsion was slowly stirred with a conventional propeller stirrer for 3 hours. After dichloromethane vaporized while w/o type microcapsules hardened, the microcapsules were centrifuged and collected and at the same time washed with purified water. The collected microcapsules were freeze-dried for a day to obtain powdery microcapsules.
(§1) The microcapsules were suspended in 0.5% methylcellulose, and orally administered to SD-strain male rats (body weight: 250 g) in a dose of 20 mg/kg. For comparative purposes, a suspension of the drug alone in 0.5% methylcellulose was also administered. In both cases, the plasma concentration of the drug and the absorption ratio were determined.

[2] = Oral administration to rats, plasma concentration and absorption ratio (Example 1, Table 1); type: in vivo; details: rat, SD-strain male rats, 20 mg/kg, suspended in 0.5% methylcellulose
Protocol: The antiulcer drug 2-[[[3-methyl-4-(2,2,3,3,-tetrafluoropropoxy)-2-pyridyl]methyl]thio]benzimidazole (hereinafter sometimes referred to as Compound A) (400 mg) and lactic acid/glycollic acid copolymer (lactic acid/glycollic acid=50/50, average molecular weight calculated as polystyrene=5400) (3.6 g) were dissolved in dichloromethane (5 ml) to prepare an o/w type emulsion using a homogenizer in an aqueous solution (800 ml) of 0.1% polyvinyl alcohol (PVA). Then, the emulsion was slowly stirred with a conventional propeller stirrer. After dichloromethane vaporized and the microcapsules hardened, the microcapsules were collected by centrifugation and at the same time washed with purified water. The collected microcapsules were freeze-dried for a day to obtain powdery microcapsules.
as §1, with “The drug content in the total amount of the microcapsules was 10.0%, and the entrapment was 100%. The” for “The”, “A” for “For comparative purposes, a”, “administered for comparison.” for “administered.”

[3] = Solubility of Compound A at the pH in the small intestine (stated in words); type: physicochemical
[4] = pH no higher than 3; cited from earlier work

Row | Fa ([1]; in vivo) | Cmax ([1]; plasma) | Tmax ([1]; plasma) | Fa ([2]; in vivo) | Cmax ([2]; plasma, read-out: Cmax (peak blood level)) | Tmax ([2]; plasma, read-out: Tmax (time required to obtain the peak blood level)) | solubility [3] | SMILES | solubility in water [4]
1 | 5.4% | 218 ng/mL | 15 min | 5.4% | 218 ng/mL | 15 min | very low solubility | Cc1c(OCC(F)(F)C(F)F)ccnc1CSc1nc2ccccc2[nH]1 [Compound A, 2-[[[3-methyl-4-(2,2,3,3,-tetrafluoropropoxy)-2-pyridyl]methyl]thio]benzimidazole] | –
2 | – | – | – | – | – | – | – | COc1ccc2c(c1)c(CC(=O)O)c(C)n2C(=O)c1ccc(Cl)cc1 [indomethacin] | not readily soluble
